The test has as its target human PTGES (Homo sapiens (Human), UniProt O14684). As to the kind of experiment: Human PTGES biochemical enzyme inhibition assay (conversion of PGH2 to PGE2, TR-FRET). As to conditions: Enzymatic conversion of PGH2 to PGE2; read-out: Human PTGES IC50. The procedure:
Human PTGES Biochemical Enzyme Inhibition Assay:
PTGES (Microsomal prostaglandin E synthase 1) is an enzyme that converts prostaglandin H2 (PGH2) to prostaglandin E2 (PGE2) in the presence of reduced glutathione (GSH).
Recombinant proteins (human isoforms) of PTGES containing a FLAG tag, expressed in baculovirus infected insect cells (Hi-5) and purified by affinity chromatography was used as enzyme in the assay. Substrate was prostaglandin H2 (Cayman Chemicals).
4 ul of a solution of human PTGES in assay buffer [100 mM sodium phosphate pH 7.2, 2.5 mM Glutathion reduced, 1 mM EDTA, 0.01% BSA, 0.4 mM DTT, 0.15 mM n-dodecylmaltoside] was added to the well containing test compound and incubated for 15-20 minutes to allow binding of the compound to the enzyme prior to the enzymatic reaction. The reaction was started by addition of 1 ul of an ice cold solution containing PGH2 (40 nM in assay buffer resulting in a final concentration of 8 nM PGH2 in the assay). […] The concentration of each isoform of PTGES was adapted to the activity of the respective enzyme preparation to maintain linear reaction properties within the reaction time. […] The reaction was stopped by addition of 1 ul of a solution containing 15 mM SnCl2 and 400 mM KF in water. SnCl2 converts the remaining unstable PGH2 to stable PGF2alpha. Then, 3 ul of the a first detection solution containing PGE2-D2 (Cisbio Bioassays, TR-FRET reagent, diluted according to the manufacturer's recommendation, typically 1:20 in reconstitution buffer) was added. […] The resulting mix was incubated overnight at 4° C. to allow the formation of a complex of PGE2 and the detection reagents. […] Dilution series were made prior to the assay in a 100 fold concentrated form by serial dilution. IC50 values were calculated by 4-Parameter fitting.

human PTGES, sequence (O14684 whole entry): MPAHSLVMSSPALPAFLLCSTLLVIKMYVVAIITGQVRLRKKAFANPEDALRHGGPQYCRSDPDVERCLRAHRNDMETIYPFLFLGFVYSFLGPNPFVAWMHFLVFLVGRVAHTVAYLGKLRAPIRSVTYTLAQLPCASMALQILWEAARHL

With `Cc1c(CCC(=O)O)cccc1NC(=O)C(c1ccc(-c2cncc(C(F)(F)F)c2)cc1F)C1CCCC1` (racemic) [Example 53, (R/S) 3-{3-[(Cyclopentyl{2-fluoro-4-[5-(trifluoromethyl)pyridin-3-yl]phenyl}acetyl)amino]-2-methylphenyl}propanoic acid], the IC50 was found to be 53.3 nM.
With `Cc1c(CCC(=O)O)cccc1NC(=O)C(c1ccc(-c2cncc(C(F)(F)F)c2)cc1)C1CCC1` (racemic) [Example 54, (R/S) 3-{3-[(Cyclobutyl{4-[5-(trifluoromethyl)pyridin-3-yl]phenyl}acetyl)amino]-2-methylphenyl}propanoic acid] the figure was 27.3 nM; with `CCOc1cncc(-c2ccc(C(C(=O)Nc3cccc(CCC(=O)O)c3C)C3CCC3)cc2)c1` (racemic) [Example 58, (R/S) 3-[3-({Cyclobutyl[4-(5-ethoxypyridin-3-yl)phenyl]acetyl}amino)-2-methylphenyl]propanoic acid], 210 nM; with `Cc1cc(-c2ccc(C(C(=O)Nc3cccc(CCC(=O)O)c3C)C3CCC3)cc2)cnc1C` (racemic) [Example 59, (R/S) 3-[3-({Cyclobutyl[4-(5,6-dimethylpyridin-3-yl)phenyl]acetyl}amino)-2-methylphenyl]propanoic acid], 193 nM.
`Cc1c(CCC(=O)O)cccc1NC(=O)C(c1ccc(-c2cncc(F)c2)cc1)C1CCC1` (racemic) [Example 60, (R/S) 3-[3-({Cyclobutyl[4-(5-fluoropyridin-3-yl)phenyl]acetyl}amino)-2-methylphenyl]propanoic acid]: the IC50 was 478 nM.
With `Cc1ncc(-c2ccc(C(C(=O)Nc3cccc(CCC(=O)O)c3C)C3CCC3)cc2)cc1Cl` (racemic) [Example 61, (R/S) 3-[3-({[4-(5-chloro-6-methylpyridin-3-yl)phenyl](cyclobutyl)acetyl}amino)-2-methylphenyl]propanoic acid] the figure was 32.2 nM; with `Cc1ncc(-c2ccc(C(C(=O)Nc3cccc(CCC(=O)O)c3C)C3CCC3)cc2)cc1F` (racemic) [Example 62, (R/S) 3-[3-({[4-(5-Fluoro-6-methylpyridin-3-yl)phenyl](cyclobutyl)acetyl}amino)-2-methylphenyl]propanoic acid], 148 nM.
As to `Cc1c(CCC(=O)O)cccc1NC(=O)C(c1ccc(-c2cncc(OC(F)F)c2)cc1)C1CCC1` (racemic) [Example 63, (R/S) 3-{3-[(Cyclobutyl{4-[5-(difluoromethoxy)pyridin-3-yl]phenyl}acetyl)amino]-2-methylphenyl}propanoic acid], the concentration for half-maximal inhibition (IC50) came out at 103 nM.
With `Cc1cncc(-c2ccc(C(C(=O)Nc3cccc(CCC(=O)O)c3C)C3CCC3)cc2)c1` (racemic) [Example 64, (R/S) 3-[3-({Cyclobutyl[4-(5-methylpyridin-3-yl)phenyl]acetyl}amino)-2-methylphenyl]propanoic acid] the figure was 344 nM; with `Cc1c(CCC(=O)O)cccc1NC(=O)C(c1ccc(-c2cncc(Cl)c2)cc1)C1CCCCC1` (racemic) [Example 65, (R/S) 3-[3-({[4-(5-Chloropyridin-3-yl)phenyl](cyclohexyl)acetyl}amino)-2-methylphenyl]propanoic acid], 196 nM; with `Cc1c(CCC(=O)O)cccc1NC(=O)C(c1ccc(-c2cncc(C(F)(F)F)c2)cc1)C1CCCCC1` (racemic) [Example 66, (R/S) 3-{3-[(Cyclohexyl{4-[5-(trifluoromethyl)pyridin-3-yl]phenyl}acetyl)amino]-2-methylphenyl}propanoic acid], 53.9 nM.
For `CCOc1cncc(-c2ccc(C(C(=O)Nc3cccc(CCC(=O)O)c3C)C3CCCCC3)cc2)c1` (racemic) [Example 67, (R/S) 3-[3-({Cyclohexyl[4-(5-ethoxypyridin-3-yl)phenyl]acetyl}amino)-2-methylphenyl]propanoic acid], the IC50 is 328 nM.
The same measure for `CCC(CC(=O)O)c1cccc(NC(=O)C(c2ccc(-c3cncc(C)c3)cc2)C2CCCC2)c1C` (racemic) [Example 104, (3R/S)-3-[3-({(2RS)-2-Cyclopentyl-2-[4-(5-methylpyridin-3-yl)phenyl]acetyl}amino)-2-methylphenyl]pentanoic acid]: 95.1 nM; for `Cc1c(CCC(=O)O)cccc1NC(=O)C(c1ccc(-c2cncc(C(F)(F)F)c2)cc1Cl)C1CCCC1` (racemic) [Example 161, (R/S) 3-(3-{[{2-chloro-4-[5-(trifluoromethyl)pyridin-3-yl]phenyl}(cyclopentyl)acetyl]amino}-2-methylphenyl)propanoic acid]: 278 nM; for `Cc1c(CCC(=O)O)cc(F)cc1NC(=O)C(c1ccc(-c2cncc(C(F)(F)F)c2)cc1)C1CCCC1` (racemic) [Example 167, (R/S) 3-{3-[(cyclopentyl{4-[5-(trifluoromethyl)pyridin-3-yl]phenyl}acetyl)amino]-5-fluoro-2-methylphenyl}propanoic acid]: 295 nM.
Regarding `Cc1c(CCC(=O)O)cc(F)cc1NC(=O)C(c1ccc(-c2cncc(Cl)c2)cc1)C1CCCC1` (racemic) [Example 168, (R/S) 3-[3-({[4-(5-chloropyridin-3-yl)phenyl](cyclopentyl)acetyl}amino)-5-fluoro-2-methylphenyl]propanoic acid], the IC50 was 1190 nM.
Regarding `Cc1ncc(-c2ccc(C(C(=O)Nc3cc(F)cc(CCC(=O)O)c3C)C3CCCC3)cc2)cc1Cl` (racemic) [Example 169, (R/S) 3-[3-({[4-(5-chloro-6-methylpyridin-3-yl)phenyl](cyclopentyl)acetyl}amino)-5-fluoro-2-methylphenyl]propanoic acid], the IC50 came out at 254 nM.
For the compound `CCOc1cncc(-c2ccc(C(C(=O)Nc3cc(F)cc(CCC(=O)O)c3C)C3CCCC3)cc2)c1` (racemic) [Example 170, (R/S) 3-[3-({[4-(5-ethoxypyridin-3-yl)phenyl](cyclopentyl)acetyl}amino)-5-fluoro-2-methylphenyl]propanoic acid], the IC50 came out at 573 nM.
For `Cc1c(NCC(=O)O)cccc1NC(=O)C(c1ccc(-c2cncc(C(F)(F)F)c2)cc1)C1CCCC1` (racemic) [Example 171, (R/S) N-{3-[(cyclopentyl{4-[5-(trifluoromethyl)pyridin-3-yl]phenyl}acetyl)amino]-2-methylphenyl}glycine], the half-maximal inhibitory concentration (IC50) was found to be 319 nM.
With `Cc1cc(C(C(=O)Nc2cccc(CCC(=O)O)c2C)C2CCCC2)c(Cl)cc1-c1cncc(Cl)c1` (racemic) [Example 172, (R/S) 3-[3-({[2-chloro-4-(5-chloropyridin-3-yl)-5-methylphenyl](cyclopentyl)acetyl}amino)-2-methylphenyl]propanoic acid] the figure was 1860 nM; with `Cc1cc(C(C(=O)Nc2cccc(CCC(=O)O)c2C)C2CCCC2)c(Cl)cc1-c1cncc(C(F)(F)F)c1` (racemic) [Example 173, (R/S) 3-(3-{[{2-chloro-5-methyl-4-[5-(trifluoromethyl)pyridin-3-yl]phenyl}(cyclopentyl)acetyl]amino}-2-methylphenyl)propanoic acid], 1240 nM; with `Cc1cc(C(C(=O)Nc2cccc(CCC(=O)O)c2C)C2CCCC2)c(Cl)cc1-c1cnc(C)c(Cl)c1` (racemic) [Example 174, (R/S) 3-[3-({[2-chloro-4-(5-chloro-6-methylpyridin-3-yl)-5-methylphenyl](cyclopentyl)acetyl}amino)-2-methylphenyl]propanoic acid], 444 nM.
Take `Cc1c(CCC(=O)O)cccc1NC(=O)C(c1ccc(-c2cncc(C(F)(F)F)c2)c(Cl)c1)C1CCCC1` (racemic) [Example 175, (R/S) 3-[3-({[3-chloro-4-(5-(trifluoromethyl)pyridin-3-yl)phenyl](cyclopentyl)acetyl}amino)-2-methylphenyl]propanoic acid]: the IC50 was determined as 34.6 nM.
With `Cc1ncc(-c2ccc(C(C(=O)Nc3cccc(CCC(=O)O)c3C)C3CCCC3)cc2Cl)cc1Cl` (racemic) [Example 176, (R/S) 3-[3-({[3-chloro-4-(5-chloro-6-methylpyridin-3-yl)phenyl](cyclopentyl)acetyl}amino)-2-methylphenyl]propanoic acid] the figure was 198 nM; with `Cc1c(CCC(=O)O)cccc1NC(=O)C(c1cc(F)c(-c2cncc(Cl)c2)cc1F)C1CCCC1` (racemic) [Example 178, (R/S) 3-[3-({[4-(5-chloropyridin-3-yl)-2,5-difluorophenyl](cyclopentyl)acetyl}amino)-2-methylphenyl]propanoic acid], 269 nM.
For the compound `Cc1c(CCC(=O)O)cccc1NC(=O)C(c1cc(F)c(-c2cncc(C(F)(F)F)c2)cc1F)C1CCCC1` (racemic) [Example 179, (R/S) 3-{3-[(cyclopentyl{2,5-difluoro-4-[5-(trifluoromethyl)pyridin-3-yl]phenyl}acetyl)amino]-2-methylphenyl}propanoic acid], the IC50 came to 85.2 nM.

For the origin of these results see patent US10172814B2, “Substituted pyridyl-cycloalkyl-carboxylic acids, compositions containing them and medical uses thereof” (BAYER PHARMA AKTIENGESELLSCHAFT, priority 2014, dated 2019).
